Where a name gives a salt, the structure may show the parent alone. Marks after values point to notes of the source that are not given here. Each block holds one molecule with its values, some of them ahead of it.
Assays:
[1] = 26-week treatment of ovariectomized rats: lumbar spine BMD, total body fat, serum cholesterol, ALP (Example 4, experiment 2); format: in vivo, rat; conditions: OVX rats, 26 weeks
Procedure: Ten to twelve week-old female Sprague-Dawley rats (Crl:CD(SD)Br) (Charles River Laboratory, St-Constant, Canada) weighing approximately 220-270 g at start of treatment were used. […] The animals were housed individually and were allowed free access to tap water and a pelleted certified rodent feed (Lab Diet 5002, Ralston Purina, St-Louis, Mo.). Experiments were conducted in an animal facility approved by the Canadian Council on Animal Care (CCAC) and the Association for Assessment and Accreditation of Laboratory Animal Care (AAALAC) in accordance with the CCAC Guide for Care and Use of Experimental Animals. […] Treatments were initiated on day 2 of the study and were performed once daily during 26 weeks. In both experiments, animals not receiving a test article were treated with the appropriate vehicle alone during the same period. […] QDR 4500A, Hologic, Waltham, Mass.) and a Regional High Resolution Scan software. […] Samples were processed for serum preparation and frozen at -80° C. until assay. Serum cholesterol levels and alkaline phospatase activity (ALP) were determined using the Boehringer Mannheim Diagnostic Hitachi 911 Analyzer (Boehringer Mannheim Diagnostic Laboratory Systems).

[2] = tested on: ZR-75-1 human breast cancer xenografts; assay: Growth and response of human ZR-75-1 breast tumors in OVX nude mice, 7 antiestrogens for 161 days with or without estrone (Example 8); format: in vivo
Procedure: ZR-75-1 human breast cancer cells were obtained from the American Type Culture Collection (Rockville, Md.) and cultured in phenol red-free RPMI-1640 medium. […] (Saint-Constant, Québec, Canada). The mice (5 per cage) were housed in vinyl cages equipped with air filter lids, which were kept in laminar airflow hoods and maintained under pathogen-limiting conditions. The photoperiod was 12 hours of light and 12 hours of darkness (lights on at 07:15). Cages, bedding and food (Agway Pro-Lab R-M-H Diet #4018) were autoclaved before use. Water was autoclaved and provided ad libitum. Bilateral ovariectomy was performed under isoflurane-induced anesthesia. […] Randomization and treatments were started one week later. […] The estrone implants were then removed from the animals in the ovariectomized control group (OVX) and in groups that were to receive the antiestrogen alone. […] Tamoxifen was purchased from […]) while toremifene citrate was purchased from Orion (Espoo, Finland). […] The antiestrogen suspensions at the appropriate concentration were prepared each month, stored at 4° C. and used under constant agitation. Powder stock were hermetically stored at 4° C. […] Two perpendicular diameters were recorded and tumor area (mm2) was calculated using the formula: […] Tumor response was assessed at the end of the study or at death of each animal, if it occurred during the course of the experiment. In this case, only data of mice that survived for at least half of the study ([…]) were used in the tumor response analysis.

[3] = tested on: ZR-75-1 human breast cancer xenografts; assay: Growth and response of human ZR-75-1 breast tumor xenografts in estrone-supplemented OVX nude mice, DHEA and/or EM-800 for 9.5 months (Example 1); format: in vivo
[4] = Uterine and vaginal weight in ovariectomized BALB/c mice treated orally for 9 days with or without estrone (Example 3); format: in vivo; conditions: OVX + E1 alone
Procedure: Female BALB/c mice (BALB/cAnNCrlBR) weighing 18-20 g were obtained from Charles-River, Inc. (St-Constant, Quebec, Canada) and housed 5 per cage in a temperature (23±1° C.)- and light (12 h light/day, lights on at 7:15)-controlled environment. The mice were fed rodent chow and tap water ad libitum. The animals were ovariectomized (OVX) under Isoflurane anesthesia via bilateral flank incisions and randomly assigned to groups of 10 animals. Ten mice were kept intact as controls.
In the second experiment (Table 6), TSE 424 was administered orally by gavage once daily at doses of 1, 3, 10 or 30 μg/animal for 9 days, starting 2 days after ovariectomy. In both experiments, to evaluate the antiestrogenic activity, treatment with estrone (E1, […], s.c. injection, twice daily) was started 5 days post-ovariectomy and was administered for a 6 day-period. Compounds were dissolved in ethanol (4% final concentration) and administered in 0.4% methylcellulose. Mice in the intact and OVX control groups received the vehicle alone (4% ETOH-0.4% methylcellulose) during the 9-day period. The animals were killed by exsanguination at the abdominal aorta on the 11th morning following ovariectomy. The uteri and vagina were rapidly dissected, weighed, and kept in 10% buffered formalin for further histologic examination.

[5] = Uterine, vaginal and body weight in estrone-supplemented OVX nude mice (Example 1); format: in vivo; conditions: estrone alone
Procedure: DHEA was dissolved in 50% ethanol 50% propylene glycol. […] Tumors were measured once a week with Vernier calipers.

[6] = tested on: human Ishikawa cells; assay: Alkaline phosphatase activity in human endometrial adenocarcinoma Ishikawa cells (Example 6); conditions: for Emax: read-out: Maximal stimulation of alkaline phosphatase % of 1 nM E2 stimulation
[7] = 5-week treatment of ovariectomized rats with SERMs alone or with DHEA: BMD of lumbar spine, femur, tibia (Example 5); format: in vivo, rat; conditions: OVX rats, 5 weeks
Procedure: (§1) Ten to twelve week-old female Sprague-Dawley rats (Crl:CD(SD)Br) (Charles River Laboratory, St-Constant, Canada) weighing approximately 220-270 g at start of treatment were used. The animals were acclimatized to the environmental conditions (temperature: 22±3° C.; humidity: 50±20%; 12-h light-12-h dark cycles, lights on at 07:15 h) for at least 1 week before starting the experiments. The animals were housed individually and were allowed free access to tap water and a pelleted certified rodent feed (Lab Diet 5002, Ralston Purina, St-Louis, Mo.). Experiments were conducted in an animal facility approved by the Canadian Council on Animal Care (CCAC) and the Association for Assessment and Accreditation of Laboratory Animal Care (AAALAC) in accordance with the CCAC Guide for Care and Use of Experimental Animals.
On day 1 of the study, the animals of the appropriate groups were bilaterally ovariectomized (Ovx) under isoflurane anesthesia. The DHEA was applied topically on the dorsal skin as a solution in 50% ethanol-50% propylene glycol while the tested SERMs were administered as suspension in 0.4% methylcellulose by oral gavage. Treatments were initiated on day 2 of the study and were performed once daily during 5 weeks.
After 5 weeks of treatment, individual rats under Isoflurane anesthesia had their lumbar spine, femur and tibia scanned using dual energy x-ray absorptiometry (DEXA; QDR 4500A, Hologic, Waltham, Mass.) and a Regional High Resolution Scan software. The bone mineral density (BMD) of the lumbar spine (vertebrae L2 to L4), distal femoral metaphysis (DFM) and proximal tibial metaphysis (PTM) were determined.

[8] = 12-month treatment of ovariectomized rats with DHEA alone or with Flutamide or EM-800: bone histomorphometry, bone markers, serum lipids; format: in vivo, rat; conditions: added to DHEA, OVX rats, 12 months
[9] = 3-month treatment of ovariectomized rats: lumbar spine BMD, total body fat, serum cholesterol, ALP (Example 4, experiment 1); format: in vivo, rat; conditions: OVX rats, 3 months
Procedure: as §1
On day 1 of the study, the animals of the appropriate groups were bilaterally ovariectomized (OVX) under isoflurane anesthesia. The DHEA was applied topically on the dorsal skin as a solution in 50% ethanol-50% propylene glycol while the other tested compounds were administered as suspension in 0.4% methylcellulose by oral gavage. Treatments were initiated on day 2 of the study and were performed once daily during 3 months.
After 3 months (experiment 1) or 26 weeks (experiment 2) of treatment, individual rats under Isoflurane anesthesia had their whole body skeleton and lumbar spine scanned using dual energy x-ray absorptiometry (DEXA; QDR 4500A, Hologic, Waltham, Mass.) and a Regional High Resolution Scan software. The bone mineral density (BMD) of the lumbar spine (vertebrae L2 to L4) and the total body composition (fat percentage) were determined.
After 3 months (experiment 1) or 26 weeks (experiment 2) of treatment, blood samples were collected at the jugular vein from overnight fasted animals (under Isoflurane anesthesia). Samples were processed for serum preparation and frozen at −80° C. until assay. Serum cholesterol levels and alkaline phospatase activity (ALP) were determined using the Boehringer Mannheim Diagnostic Hitachi 911 Analyzer (Boehringer Mannheim Diagnostic Laboratory Systems).

[10] = Endometrial epithelium thickness in OVX nude mice after 161 days of antiestrogen (Example 8); format: in vivo
Text: The 17 groups included two control groups (OVX and OVX+Estrone), seven groups supplemented with an estrone implant and treated with an antiestrogen and eight other groups that received an antiestrogen alone. The estrone implants were then removed from the animals in the ovariectomized control group (OVX) and in groups that were to receive the antiestrogen alone. […] Tamoxifen was purchased from […]) while toremifene citrate was purchased from Orion (Espoo, Finland). […] The antiestrogen suspensions at the appropriate concentration were prepared each month, stored at 4° C. and used under constant agitation. Powder stock were hermetically stored at 4° C. […] After 161 days of treatment, the remaining animals were anesthetized with isoflurane and killed by exsanguination. […] The uteri were prepared to evaluate endometrial thickness by image analysis performed with Image Pro-Plus (Media Cybernetics, Maryland, USA). […] Hematoxylin- and eosin-stained sections of mice uteri were analyzed. […] Mean epithelial cell height was measured in all animals of each group.

[11] = Premarin 0.25 mg/kg, SERMs 2.5 mg/kg
[12] = Ishikawa cells, 5-day incubation, 1 nM E2
[13] = E2 1 mg/kg, EM-652.HCl 2.5 mg/kg, DHEA 80 mg/kg
[14] = estrone-supplemented, 50 μg daily, 161 days

Structure (SMILES): Oc1ccc2c(c1)CC[C@H](c1ccccc1)[C@@H]2c1ccc(OCCN2CCCC2)cc1 (racemic) [Lasofoxifene, (−)-cis-(5R,6S)-6-phenyl-5-[4-(2-pyrrolidin-1-ylethoxy)phenyl]-5,6,7,8-tetrahydronaphthalen-2-ol, D-(−)-tartrate salt]
- ALP [1]: 116 ± 9 IU
- CHOLESTEROL (serum) [1]: 0.60 ± 0.02 mmol/L
- TOTAL FAT [1]: 24.1 ± 1.3 %
- reversal of the fat increase induced by estrogen deficiency [1]: 114%
- LUMBAR SPINE BMD [1, 11]: 0.2307 ± 0.0040 g/cm^2
- LUMBAR SPINE Prevention of Bone Loss [1, 11]: 61%

Structure (SMILES): C[C@]12CC[C@@H]3c4ccc(O)cc4CC[C@H]3[C@@H]1CCC2=O [E1, estrone]
- increase in ZR-75-1 tumor size ([2]; Estrone alone (OVX+E1), 23 weeks): 707%
- Category of response: Complete (%) ([3]; E1 0.5 μg alone): 0 (0) %
- Category of response: Complete (Number) ([3]; E1 0.5 μg alone): 0 (0)
- Category of response: Partial (%) ([3]; E1 0.5 μg alone): 0 (0) %
- Category of response: Partial (Number) ([3]; E1 0.5 μg alone): 0 (0)
- Category of response: Progression (%) ([3]; E1 0.5 μg alone): 87.5%
- Category of response: Progression (Number) ([3]; E1 0.5 μg alone): 14
- Category of response: Stable (%) ([3]; E1 0.5 μg alone): 12.5%
- Category of response: Stable (Number) ([3]; E1 0.5 μg alone): 2
- Category of response: Complete (%) ([3]; E1 0.5 μg alone, listed as estrone): 0%
- Average tumor weight at end of experiment ([3]; estrone 0.5 μg alone (control E1-supplemented OVX mice)): 1.12 ± 0.26 g
- increase in ZR-75-1 tumor size ([3]; estrone 0.5 μg s.c. daily alone, 291 days (9.5 months)): 9.4 fold
- UTERINE WEIGHT [4]: 118.3 ± 6.0 mg
- VAGINAL WEIGHT [4]: 53.4 ± 2.8 mg
- UTERINE WEIGHT [5]: 132 ± 8 mg
- VAGINAL WEIGHT [5]: 31 ± 2 mg

- IC50 ([6]; Homo sapiens, Ishikawa, 120 h, read-out: Inhibition of 1 nM E2-induced stimulation of alkaline phosphatase IC50): 5.84 nM
Structure (SMILES): Cc1c(-c2ccc(O)cc2)n(Cc2ccc(OCCN3CCCCC3)cc2)c2ccc(O)cc12 [ERA-923, 2-(4-hydroxyphenyl)-3-methyl-1-[[4-[2-(1-piperidinyl)ethoxy]phenyl]methyl]-1H-indol-5-ol]
- Emax ([6]; Homo sapiens, Ishikawa, 120 h): 0.6%
- Maximal inhibition of 1 nM E2-induced stimulation of alkaline phosphatase [6, 12]: 100.16 (1)
- DISTAL FEMORAL METAPHYSIS (DFM) BMD [7]: 0.2969 ± 0.0029 g/cm^2
- DISTAL FEMORAL METAPHYSIS (DFM) Prevention of Bone Loss [7]: 83%
- PROXIMAL TIBIAL METAPHYSIS (PFM) BMD [7]: 0.2805 ± 0.0034 g/cm^2
- PROXIMAL TIBIAL METAPHYSIS (PFM) Prevention of Bone Loss [7]: 91%
- LUMBAR SPINE (L2-L4) BMD ([7]; SERMs 2.5 mg/kg, DHEA 80 mg/kg): 0.2214 ± 0.0029 g/cm^2
- LUMBAR SPINE (L2-L4) Prevention of Bone Loss ([7]; SERMs 2.5 mg/kg, DHEA 80 mg/kg): 78%

Structure (SMILES): CC(C)C(=O)Nc1ccc([N+](=O)[O-])c(C(F)(F)F)c1 [FLU, Flutamide]
- reversal of the stimulatory effect of DHEA on serum alkaline phosphatase [8]: 65%

- Inhibition of 1 nM E2-induced stimulation of alkaline phosphatase IC50 [6, 12]: No inhibition
Structure (SMILES): CC/C(=C(\c1ccccc1)c1ccc(/C=C/C(=O)O)cc1)c1ccccc1 [GW 5638]
- ALP (serum alkaline phosphatase activity) [9]: 72 ± 6 IU/L
- CHOLESTEROL (serum) [9]: 1.14 ± 0.08 mmol/L
- TOTAL FAT [9]: 21.9 ± 1.4 %
- LUMBAR SPINE BMD [9, 13]: 0.2299 ± 0.0060 g/cm^2
- LUMBAR SPINE Prevention of Bone Loss [9, 13]: 34%
- increase of average tumor size over baseline (agonistic effect) ([2]; absence of estrone, 200 μg daily, 161 days): did not significantly change
- average tumor size above pretreatment values ([2]; estrone-stimulated, 50 μg oral daily, 23 weeks): 227%
- progressing tumors, % of tumors [2, 14]: 77%
- progressing tumors, number of total [2, 14]: 20 of 26
- Emax ([6]; Homo sapiens, Ishikawa, 120 h): 7.75 ± 5.5%
- inhibition of the stimulatory effect of estrone on epithelial height ([10]; 50 μg daily oral, estrone stimulation): 24%
- height of uterine epithelial cells, % of the OVX control group value ([10]; 200 μg daily, absence of estrone): 121%
- ENDOMETRIAL EPITHELIUM THICKNESS (μm) ± SEM ([10]; OVX + E1, antiestrogen 50 μg daily): 35.30^b,d ± 0.07 μm
- ENDOMETRIAL EPITHELIUM THICKNESS (μm) ± SEM ([10]; OVX without E1, antiestrogen 200 μg daily): 22.22^a ± 0.05 μm

— patent US11452731B2, “Method of treating and preventing loss of cognition” (ENDORECHERCHE, INC., priority 2009, dated 2022)
